Entries after “also recorded” stand apart in the source; their conditions may differ.
How the values were obtained:
[1] = target: T1, fibroblast growth factor-1 (FGF-1) (Homo sapiens, UniProt P05230); assay: Inhibition of fibroblast mitogenesis induced by FGF-1 in Balb/c 3T3 fibroblasts; type: cell-based; design: host or cells: added to Balb/c 3T3 fibroblasts (mouse); details: quiescent Balb/c 3T3 cultures; potassium salts, except 2-acetoxy-5-hydroxybenzene sulfonate as calcium salt
Method: The evaluated compounds were used in the form of potassium salt, except in the first case in which calcium salt was used. The experiments were carried out as described in Fernandez-Tornero C et al. J Biol Chem, 2003.

[2] = target: T1, fibroblast growth factor-1 (FGF-1); assay: Co-crystallisation with FGF-1 (crystal diffraction of complexes); type: binding
Description: (§1) FIG. 24. 2-acetoxy-5-hydroxybenzenesulfonic acid co-crystallized with fibroblast growth factor-1. […] The compound occupies a place that is very close to that described occupied by 2,5-dihydroxybenzenesulfonic acid, the aromatic ring of which forms a cation-σ bond with the N^ε group of lysine 132, which is marked in panel A as reference. […] In panels A and B, the protein surface is colored according to its electrostatic potential (light grey: negative charge; dark grey: positive charge; white: lack of charge).
as §1, with “25. 5-acetoxy-2-hydroxybenzenesulfonic” for “24. 2-acetoxy-5-hydroxybenzenesulfonic”, “cation-π” for “cation-σ”
as §1, with “26. 2,5-diacetoxybenzenesulfonic” for “24. 2-acetoxy-5-hydroxybenzenesulfonic”, “cation-π” for “cation-σ”
Based on the crystal diffraction of the FGF-1:2-acetoxy-5-hydroxybenzene sulfonic acid, FGF-1:5-acetoxy-2-hydroxybenzene sulfonic acid and FGF-1:2,5-diacetoxybenzene sulfonic acid complexes, the structures of the complexes were calculated and represented. FIGS. 24, 25 and 26, which show the surface of the dyed protein according to its electrostatic potential (light grey: negative charge; dark grey: positive charge; white: lack of charge), show the manner in which 2-acetoxy-5-hydroxybenzene sulfonic acid, 5-acetoxy-2-hydroxybenzene sulfonic acid and 2,5-diacetoxybenzene sulfonic acid interact, respectively, with FGF-1.

Leishmania major = assay: Experimental infection with Leishmania major in a mouse model (paw thickness); type: in vivo, mice
Description: (§2) The vehicle group consisted of infected animals that received daily injections of saline (0.9% NaCl) during the same period as DHBS. Results are expressed as the mean±the standard deviation of the increases in size of the inoculated paw (right) compared to the non-inoculated paw (left) in mm obtained with a Vernier caliper each week from 0 to 10. ** indicates p<0.01 vs. the vehicle-treated group by a Student t-test. 6 animals were used for each group.
as §2, with “from” for “during”, “moment of the infection, while the control group consisted of non-infected animals.” for “same period as DHBS.”, “9. *” for “10. **”, “p<0.05” for “p<0.01”, “vehicle” for “vehicle-treated”, “7” for “6”
as §2, with “from” for “during”, “third week after the infection.” for “same period as DHBS.”, “9. *” for “10. **”, “p<0.05” for “p<0.01”, “vehicle” for “vehicle-treated”, “7” for “6”
This model is based in the massive inoculation of Leishmania promatigotes in the mouse paw pad. Under these conditions, the parasite induces a progressive inflammation correlated with the multiplication of parasites at the site of inoculation. BALB/c strain female mice that developed severe and uncontrolled injuries were used (Foote S J, Handman E. Brief Funct Genomic Proteomic, 2005). This model has been used in pharmacology to monitor the therapeutic capacity of new leishmanicide compounds and the preventive capacity of potential vaccines against leishmaniasis ((Nelson K G et al. Antimicrob Agents Chemother. 2006).
The animals were inoculated with 5×10^6 of L. major promastigotes (strain Hervás) in 50 μL of PBS into the plantar pad of the right back paw. As negative control of the infection, a group of mice inoculated with 50 μL of PBS was used. The sizes of the lesions were measured every 7 days until the animals were sacrificed (week 9) using a Vernier caliper. The thickness of the right back paw (infected) and the left back paw (uninfected) of all the animals was measured at the base of the fifth toe. The progression of the inflammation is represented as the difference in thickness between the infected and the non-infected paws. […]

pterygium = assay: Topical treatment of pterygium in a patient; type: in vivo, human; details: 2.5% solution, one drop four times per day, two weeks
Description: FIG. 3. […] The treatment consists of the application of 4 drops of said solution daily, for two weeks.
The solution was applied topically to a patient suffering from unilateral pterygium, as one drop four times per day.

Nakagawa angioblastoma = assay: Topical treatment of Nakagawa angioblastoma (hemangioblastoma) in a child; type: in vivo, human; details: cream 2.5%, topical twice a day, 1 month, one child
Description: Photographs showing the effects of a topical treatment with a cream comprising 2,5-dihydroxybenzenesulfonic (DHBS) in a child suffering from Nakagawa angioblastoma.
The cream comprising 2,5-dihydroxybenzene sulfonic (2.5%) was topically applied twice a day during 1 month on the face of the child suffering from Nakagawa angioblastoma.

T1 sequence (P05230 whole entry, species assumed): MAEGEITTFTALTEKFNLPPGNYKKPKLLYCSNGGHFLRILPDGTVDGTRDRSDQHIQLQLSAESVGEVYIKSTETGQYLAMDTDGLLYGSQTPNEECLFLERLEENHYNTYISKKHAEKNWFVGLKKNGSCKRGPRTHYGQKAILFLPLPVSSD

| SMILES | FGF-1 induced mitogenesis [1] | acetoxyl groups of the compound when bound to the protein ([2]; electron density contoured at 1σ) | binding site on FGF-1 in the crystal complex ([2]; reference: site of 2,5-dihydroxybenzene sulfonic acid, lysine 132) | size of the lesion (infected vs non-infected paw) (Leishmania major; 200 mg/kg/day i.p. from day 0 to week 9, effect from the third week post-infection) | size of the lesion (infected vs non-infected paw) (Leishmania major; 200 mg/kg/day i.p. from third week after inoculation, effect from the eighth week) | pterygium (pterygium) | intensity of the coloration caused by the lesion (Nakagawa angioblastoma) | intensity of the coloration caused by the lesion (Nakagawa angioblastoma; listed as 2,5-dihydroxybenzene sulfonic) |
| --- | --- | --- | --- | --- | --- | --- | --- | --- |
| CC(=O)Oc1ccc(OC(C)=O)c(S(=O)(=O)[O-])c1.[K+] [DABS, potassium 2,5-diacetoxybenzene sulfonate] | Inhibition | conserve the acetoxyl groups | a site that is very close to the one that has been described occupied by 2,5-dihydroxybenzene sulfonic acid | statistically significant reduction in the size of the lesion | significantly smaller; also recorded: Reduction in the size of the lesion |  |  |  |
| O=S(=O)(O)c1cc(O)ccc1O [DHBS, 2,5-dihydroxybenzenesulfonic acid] |  |  |  |  |  | partial reversal of the pterygium | decrease in the intensity of the coloration | reduction in the intensity of the reddish coloration |
